Source: US11779565B2, “Small organic molecules for use in the treatment of neuroinflammatory disorders” (THE MEDICAL RESEARCH, INFRASTRUCTURE AND HEALTH SERVICES …, priority 2017, dated 2023)
pIC50: −log10 of the molar value.

Experiments:
RR-EAE mice = assay: RR-EAE model in SJL mice, clinical score; assay type: in vivo; settings: for EAE clinical score: 10 mg/kg/day i.p.
Procedure: RR-EAE was induced in SJL female mice (6-8 week old) by subcutaneous immunization (day 0) with 100 μg/mouse proteolipid protein peptide (PLP139-151, synthesized by Sigma-Aldrich) in 0.1 ml PBS. The peptide was emulsified in an equal volume of Complete Freund's Adjuvant (CFA, from DIFCO) containing 500 μg Mycobacterium tuberculosis H37RA (MT, from DIFCO). The mice also received an intraperitoneal injection of 300 ng pertussis toxin (PTX, from Sigma-Aldrich) in 0.2 ml PBS. A second injection of PTX (300 ng/mouse) was given 48 h later.
Mice were monitored for symptoms of RR-EAE and were scored as follows: “0” for no disease; “1”, tail paralysis; “2”, hind limb weakness; “3”, hind limb paralysis; “4”, hind limb and forelimb weakness/paralysis; “5”, moribund.
The effect of the small molecule inhibitors that were identified in Example 1 above was further tested in vivo using the experimental autoimmune encephalomyelitis (EAE) model in SJL mice. EAE serves as a model for Relapsing/Remitting multiple sclerosis (MS). EAE was induced as described in the experimental procedures section. SMs 1-9 or vehicle alone (5% DMSO in PBS) were daily administered by intraperitoneal injections of 250 μg/mouse (10 mg/kg/day), starting from day 9 post immunization, for the next 30 days. The animals were monitored until day 45 post-induction for symptoms of EAE and scored as follows: 0=no disease, 1=tail paralysis, 2=hind limb weakness, 3=hind limb paralysis, 4=hind limb plus forelimb paralysis, and 5=moribund.
Experiments were repeated with the 4 above-mentioned molecules SM1, SM6, SM7 & SM9. The experiment was conducted under similar conditions as the previous one, except that two dosages of the molecules were administered: a dose of 10 mg/kg and dose of 20 mg/kg, namely 250 μg/mouse and 500 μg/mouse on days 9-38 (see FIG. 4).

BMP-2 = target: T1, BMP-2 (Homo sapiens, UniProt P12643); assay: ATDC5 cell based HTS bioassay: ALP production stimulated by BMP-2 and heparin; set-up: species or system mouse; settings: for pIC50: inhibition of BMP-2-stimulated ALP in ATDC5 cells, 48 hours, tested at 0.62-10 μM; for inhibition at 2.5 µM: ATDC5 cells, read-out: inhibition of BMP-2 (ALP induction)
T1 construct: purchased R&D Systems
T1 sequence (P12643 283-396): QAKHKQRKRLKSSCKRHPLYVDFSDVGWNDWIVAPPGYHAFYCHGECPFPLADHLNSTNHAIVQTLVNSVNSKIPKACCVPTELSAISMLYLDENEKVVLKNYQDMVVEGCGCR
Procedure: (§1) Poly-L-lysine (Sigma-Aldrich) was added to 384-well plates and was removed after 30 min of incubation at RT. An assay medium containing DMEM/F12, 2% FBS, 100 units/ml penicillin, […] streptomycin (Biological industries) was added to each well. […] ATDC5 cells (Sigma-Aldrich) were harvested, re-suspended in assay medium and added to a final concentration of 2000 cells/well. Finally, heparin (Sigma-Aldrich) was added to a final concentration of 2 μg/ml. The cells were incubated for 48 hours at 37° C. with 5% CO2 in a humidified chamber in the presence or absence of potential small molecule inhibitors of BPM-2. After incubation, ALP levels and cell viability were determined using a completely automated protocol. Cells were washed with PBS, lysed using a lysis buffer containing 0.2% Triton X-100 in PBS supplemented with a protease inhibitor cocktail (Sigma-Aldrich) and incubated for 25 min at RT. ALP level was then determined by addition of CDP-Star® chemiluminescent substrate (Sigma-Aldrich) and measurement of luminescence after incubation for 25 min at RT in the dark. Cell viability was finally determined by addition of CellTiter-Glo® reagent (Biological Industries) and luminescence measurement after 10 min of incubation.
An ATDC5 cell based assay for assessing structure-function relationship of BMP-2 and BMP receptor IA was originally described in Keller et al (Nature Structural & Molecular Biology 2004 11, 481-488). In order to screen a large volume of potential therapeutic agents the ATDC5 cell based bioassay for detecting BMP inhibition was adapted for use in high throughput screening. The bioassay is based on the stimulation of alkaline phosphatase (ALP) production in mouse ATDC5 cells by administration of BMP-2 and heparin, and measurement of ALP levels in the presence of the potential inhibitors. […] This was achieved by using CellTiter-Glo® Luminescent Cell Viability Assay for assessing the cells' viability after the luminescent signal by CDP-Star® has faded. The simultaneous assessment of both ALP production and cells' viability was necessary since potentially toxic tested small molecules may lead to reduced ALP levels by cellular cytotoxicity rather than by interference with BMP-2 signaling. […] Particulars of the bioassay are detailed in the Experimental procedures section above.
A library of small molecules (SM) was screened using the High Throughput Screening bioassay described above. About 7600 SMs were screened, from the Maybridge library, which consists of organic “drug-like” compounds, using the pre-plated HitFinder™ Collection. […] The SM were tested at various concentrations, i.e. at 0.62 μM, 1.25 μM, 2.5 μM, 5 μM and 10 μM.

BMP-4 = target: T2, BMP-4 (Homo sapiens, UniProt P12644); assay: ATDC5 bioassay with rhBMP-4 stimulation instead of rhBMP-2 (ALP); assay type: cell-based, mouse; settings: ATDC5 cells; for effect on ALP production induced by BMP-4 compared with BMP-2: 2.5 μM and 5 μM; for inhibition at 2.5 µM: read-out: inhibition of BMP-4 (ALP induction)
T2 sequence (P12644 293-408): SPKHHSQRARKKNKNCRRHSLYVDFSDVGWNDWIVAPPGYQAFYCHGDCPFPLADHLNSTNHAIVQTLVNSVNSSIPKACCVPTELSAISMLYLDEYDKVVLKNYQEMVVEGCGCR
Procedure: as §1
Due to the high homology between BMP-2 and BMP-4, the ability of the SMs to inhibit BMP-2 and BMP-4 signaling (similar to the effect of the anti-BMP-2/4 mAb) was also examined.

[1] = first experiment, 10 mg/kg/day i.p. from day 9 for 30 days, vs. vehicle
[2] = second experiment, 10 and 20 mg/kg, vs. vehicle
[3] = second experiment, high dosage 20 mg/kg, days 9-38, vs. vehicle
[4] = second experiment, low dosage 10 mg/kg, days 9-38, vs. vehicle
[5] = first experiment, day 21 post immunization (vehicle 1.1±0.3)

SMILES | effect on EAE clinical score (RR-EAE mice; [1]) | EAE clinical score (RR-EAE mice; first experiment, day 19 post immunization (vehicle 1.1±0.3)) | EAE clinical score (RR-EAE mice; first experiment, day 27) | number of mice with moderate-severe EAE (clinical score at least 2) (RR-EAE mice; [2]) | effect on EAE clinical score (RR-EAE mice; [3]) | effect on EAE clinical score (RR-EAE mice; [4]) | pIC50 (BMP-2) | effect on ALP production induced by BMP-4 compared with BMP-2 (BMP-4) | effect on EAE clinical score (RR-EAE mice; second experiment, 10 and 20 mg/kg, days 9-38) | number of mice with a more severe EAE (RR-EAE mice; second experiment, during the second relapse (vehicle 5-6 mice)) | number of mice with a more severe EAE (RR-EAE mice; second experiment, during the third relapse (vehicle 8-9 mice)) | EAE clinical score (RR-EAE mice; [5]) | mice died by the end of the experiment (RR-EAE mice; second experiment, high dose group 20 mg/kg, day 48) | mice died by the end of the experiment (RR-EAE mice; second experiment, low dose group 10 mg/kg, day 48, n=14) [mice] | inhibition at 2.5 µM (BMP-2) [%] | inhibition at 2.5 µM (BMP-4) [%]
COC(=O)c1sccc1N/N=C(\C#N)S(=O)(=O)c1cccs1 [SM1, Methyl 3-[(2E)-2-[cyano(thiophen-2-ylsulfonyl)methylidene]hydrazinyl]thiophene-2-carboxylate] | beneficial effect | 0.5±0.2 | 0.3±0.3 | beneficial effect | trend for amelioration | significant beneficial effect | 5.59 | same effect | – | – | – | – | – | – | – | –
O=C(Nc1cccc(C(F)(F)F)c1)c1ccc([N+](=O)[O-])o1 [SM6, N2-[3-(trifluoromethyl)phenyl)-5-nitro-2-furamide] | did not show any beneficial effect | – | – | reduced | – | – | 5.01 | same effect | milder and not significant | 2-3 mice | 5-7 mice | – | – | – | – | –
N#Cc1c(O)nsc1Nc1ccccc1C(F)(F)F [SM7, 3-hydroxy-5-[2-(trifluoromethyl)aniline]isothiazole-4-carbonitrile] | beneficial effect | – | – | – | – | – | 5.66 | inhibit BMP-2 slightly more than BMP-4 | – | – | – | 0.6±0.1 | all of the mice died | 8 | 47.3 | 29.8
CS(=O)(=O)c1noc(-c2ccc(Cl)cc2)c1C#N [SM9, 5-(4-chlorophenyl)-3-methylsulfonyl-1,2-oxazole-4-carbonitrile] | beneficial effect | – | – | beneficial effect | ameliorated EAE | ameliorated EAE | 5.36 | inhibit BMP-2 slightly more than BMP-4 | – | – | – | 0.8±0.3 | – | – | 29.1 | 18.9
